Molecules are shown by their SMILES. Where two headings read alike, the source gives them in different places.

For data set [1], the system named is rat thoracic aortic smooth muscle cells. The format is cell-based. As to conditions: added to culture medium; final concentration: barium titanate 1 mg/mL, H2O2 15% (FIG. 6). As for the experimental part:
A biological toxicity testing was conducted on barium titanate powders using rat thoracic aortic smooth muscle cells. Different additives were charged into cell culture media. After culture for a period of time, biological statistics was conducted. FIG. 6(a) illustrates a cell count in a standard medium as a function of cell culture time; FIGS. 6(b) and 6(c) illustrate results after addition of barium titanate powders (final concentration: 1 mg/mL) and 30% H2O2 (final concentration: 15%) in a culture medium, respectively; FIG. 6(d) illustrates mathematical statistics of results of every day.

For data set [2] the following is noted: after whitening for the same time period, SEM (FIG. 7).

Turning to `OO` [H2O2, hydrogen peroxide], in data set [1], the “effect on cell growth and proliferation (cell count versus culture time)” value is “almost all cells in the medium die”. Further, the “damage to the tooth surface / enamel” value in data set [2] is reported as “damages the tooth surface seriously”; in data set [2] (listed as 30% H2O2), “causes non-ignorable damage to the enamel on the tooth surface”.

The record behind these values is patent publication US20210052358A1, “TEETH WHITENING PRODUCT CONTAINING PIEZOELECTRIC MATERIAL” (Nanjing University of Science & Technology, priority 2019, published 2021).
